# Results published in patent US20180214519A1, “COMBINATION THERAPIES FOR MODULATION OF HISTONE METHYL MODIFYING ENZYMES” (Constellation Pharmaceuticals, Inc., priority 2015, published 2018).
# Read-outs that look alike come from different tables or passages of the source.
# How the values were obtained:
# KARPAS-422 cells = test: Cell viability assay (Cell Titer Glo) in KARPAS-422 cells; format: cell-based; settings: EZH2 mutant-containing DLBCL cell line KARPAS-422; viability monitored at day 4, day 8 and day 12
# Procedure: For suspension cell lines, cells were seeded at their pre-determined optimal seeding density in a 96 well dish in a volume of 70-90 μl, depending on the number of compounds under investigation in a single assay (i.e. single agent assay versus combination assay). A 10× stock solution of the highest desired concentration of the compound of interest was made in growth media. In parallel, a solution containing the same % of diluent as the 10× compound concentration was made for each compound under investigation, also in growth media. Compound was diluted serially in the diluent/growth media solution, and 10 μl of 10× drug was added to the relevant wells of the 96 well dish containing cells. […] Cells were cultured in the presence of compound for 4 days, at which point 100 μl growth media was added, cells were triturated, and the cell density of the diluent only control treatment was determined. A split ratio was determined based on this density, such that the new cell density of diluent treated cells after splitting would match the original cell density from day 0. […] 50 μl CTG reagent was added to all wells containing cells that remained in the original 96 well dish, followed by a 30 min incubation on an orbital shaker, before a luminescence reading was obtained on a Perkin-Elmer Envision. […]
# PC9 cells = test: RNA-sequencing and gene set enrichment analysis in PC9 cells; format: cell-based; settings: 2.5 μM pre-treatment 8 days then 1 μM erlotinib; compared to DMSO pre-treated/erlotinib acutely treated cells
# Source text: For RNA sequencing (RNA-seq) experiments, RNA was submitted to Ocean Ridge Biosciences (Palm Beach Gardens, Fla.) for quality control, library preparation and sequencing. Samples were processed as per the vendor's protocols (http://www.oceanridgebio.com/rna-sequencing.html). Data was processed as previously described (ibid).
# Experimental gene lists pre-ranked by differential expression were compared against gene sets in the Molecular Signature Database (MSigDB), v4.0 (http://www.broadinstitute.org/gsea/msigdb/index.jsp). GSEA analyses were run using the weighted scoring option, meandiv normalization, and excluding MSigDB gene sets with more than 1500 or fewer than 15 member genes.
# For transcriptomic analysis of PC9 cells, cells were pretreated for 8 days with 2.5 μM CPI-360, with one splitting event and reapplication of fresh drug at day 4. On day 8, without splitting, 0.1% (v/v) DMSO or 1 μM erlotinib was added directly to each vessel, mixed, and incubated for 6 or 24 hours before harvesting. Cells were harvested by aspiration of media, and direct application of buffer RLT to the cell culture plate. RNA was purified as described above.
# PC9 cells were pre-treated with 2.5 μM Inhbitor 2 or DMSO for 8 days, with splitting, re-seeding and compound re-fresh at day 4. […] RNA was extracted, and analyzed via RNA-sequencing, then gene set enrichment analysis using msigdb v4.0 (all categories). […]
# [1] = pre-treatment 4 days, then 1 μM erlotinib, compared to erlotinib only treated cells
# Procedure for PC9 NucRed cells: The non-small cell lung cancer (NSCLC) cell line PC9 was transduced with virus expressing nuclear-restricted RFP (NucRed, Essen Biosciences NucLight), and selected with zeocin (Invivogen). […] Every 3-4 days, media was removed, cells were washed with PBS, and fresh growth media containing 1 μM erlotinib was added. DTPs are defined as cells maintaining red fluorescence, while remaining in a non-proliferative state. After a period of time, DTPs regain proliferative capacity, at which point they are deemed drug tolerant expanded persisters (DTEPs) (ibid). Cells were maintained in 12 well dishes in an Incucyte ZOOM (Essen Biosciences) positioned in a humidified tissue culture incubator for the length of each experiment. Whole well phase and fluorescent images were obtained every 12 hours by the Incucyte ZOOM, and cell number quantified using an automated algorithm defined from a training set of images that identifies red fluorescent signal (positive signal pseudocolored blue in figures). In each experiment, relative cell number is quantitated by dividing cell number at each time point by the initial cell number for each well. In some instances, PC9 NucRed cells were pretreated with EZH2 inhibitors, before counting and reseeding at 5×10^4 cells per well for DTP generation assays as described above.
# 48 hours later, 1 μM erlotinib was added to the cells, and images were obtained every 12 hours via the Incucyte imaging system. […] FIG. 15c is a schematic of experimental design for FIG. 15d and FIG. 15e PC9 NucRed cells were pre-treated with Inhbitor 1 as in FIG. 15a and FIG. 15b, however after 48 hours, were treated with 0.1% DMSO instead of erlotinib.
# Media with fresh compounds was changed every 3-4 days. Phase and fluorescent images obtained every 12 hours with Incucyte imaging platform. Cell number determined by red fluorescent nuclei detection by Incucyte.
smiles,measurement,setting,value
CCS(=O)(=O)N1CCC([C@@H](C)n2c(C)c(C(=O)NCc3c(OC)cc(C)[nH]c3=O)c3ccccc32)CC1 [Inhibitor 1],sensitivity of cell viability to treatment,KARPAS-422 cells,temporal sensitivity
same,reduction in cell number,"PC9 NucRed cells; 5 μM pre-treatment followed by acute 1 μM erlotinib, compared to DMSO pretreatment, acute erlotinib treatment",80%
same,reduction in cell number,"PC9 NucRed cells; 5 μM pretreatment for 4 days, then acute DMSO treatment, compared to DMSO pretreated cells",15%
same,drug tolerant persister (DTP) cells remaining after initial erlotinib treatment,PC9 NucRed cells; [1],a reduction in the number of drug tolerant persister (DTP) cells
same,initiation of cell growth inhibition,PC9 NucRed cells; [1],faster initiation of cell growth inhibition
same,outgrowth of erlotinib-resistant cells,PC9 NucRed cells; [1],delayed/reduced outgrowth of erlotinib-resistant cells
COc1cc(C)[nH]c(=O)c1CNC(=O)c1c(C)n([C@H](C)C2CCOCC2)c2ccccc12 [Inhibitor 2],altered pathways (gene set enrichment analysis),PC9 cells,3 out of the top 5 altered pathways are interferon-related pathways
"C#Cc1cccc(Nc2ncnc3cc(OCCOC)c(OCCOC)cc23)c1 [erlotinib, reference compound]",GI90 dose,PC9 NucRed cells; PC9 cells,1 µM
